In US12661353B2, “SPT5 inhibitors and uses thereof” (Yeda Research and Development Co. Ltd., priority 2020, dated 2026):

Legend:
[1] = tested on: replication-dependent histone genes; assay: RNA-seq of 4sU metabolic labeling: replication-dependent histone genes; type: cell-based, human
Procedure: (§1) High-throughput sequencing of the total, labeled and Run-On transcripts (RNA-Seq and Gro-seq)—_The RNA-Seq libraries were prepared by the Genomics unit in The Nancy and Stephen Grand Israel National Center for Personalized Medicine (G-INCPM, Weizmann Institute of Science). Samples from 2-hour SPI treatment were prepared using in-house mRNA Seq protocol and polyA capturing and those from 24-hpur and 4sU treatments were prepared using the same protocol w/o PolyA capture (with random hexamers), and sequenced using an Illumina HiSeq 2500 system yielding about 30M SE reads of 61 bases. The GRO-seq RNA samples were reverse transcribed and amplified (15 cycles) using in-house mRNA Seq protocol w/o PolyA capture (with random hexamers) and sequenced in one lane using an Illumina HiSeq High Output (480 million reads, yielding more than 100M SE reads of 47 bases per sample). Each RNA-Seq analysis was carried out using two independent replicates.
(§2) RNA-Seq and GRO-seq Bioinformatics analysis—_For the analysis of the 24 h, 4sU and GRO-seq data, we used the RNA-Seq pipeline of UTAP (Kohen et al. 2019) to determine the differentially expressed genes. For the 2-hour data, reads were mapped to the H. sapiens GRCh38 reference genome using STAR (Dobin et al., 2013) and expression levels for each gene were quantified using htseq-count (Anders et al., 2015). Differentially expressed genes were identified using DESeq2 (Love et al., 2014). […] The reads coverage was calculated using bed files containing the desired genomic regions and orientation (awk command) and the bedtools coverage tool (Quinlan et al., 2010).
Since the RNA-seq following treatment with SPI-21 detects only polyadenylated transcripts and the treatment was effected for 2 hours, during which only a fraction of cells is in S-phase, an effect on histone genes was not found. Thus, to investigate further the regulation of histone genes by Spt5 using the identified SPIs, cells were treated for 24 hours with SPI-21 or SPI-18, to allow all cells to pass S-phase at least once. Following, mRNA was extracted and cDNA was prepared using random hexamers and the levels of 4 histone genes were determined. […] Spt5 requirement for expression of histone genes cannot be explained by a positive effect on elongation or mRNA processing since histone genes are very short and are intron-less. […] To resolve the discrepancy between the effect of Spt5 inhibition on steady-state levels and synthesis rate, the possibility that Spt5 is required for the processing of histone mRNAs was considered. In addition to the conserved stem-loop, histone genes have a canonical polyadenylation signal downstream of the stem-loop structure (FIG. 5B). It was therefore considered that Spt5 controls the choice between 3′ end processing via the stem-loop pathway or the polyadenylation pathway of histone pre-mRNAs. To this end, cDNA prepared by random hexamer and Poly-T the ratio between total and poly-A tailed histone genes was determined. […] Thus, the reduction in the histone gene expression upon Spt5 inhibition may be associated, at least in part, to a defect in 3′ end processing.

His-eIF4E = molecular target: T1, His-eIF4E (Homo sapiens, UniProt P06730); assay: Binding assay by intrinsic fluorescence of His-eIF4E (negative control); settings: negative control protein
T1 construct: His tag; made in house; host or cells: E. coli; purified by nickel agarose beads
Procedure: Binding assay—In order to measure binding of the indicated compound to Spt5 and/or Pol II; Spt5-Spt4 or Rpb1 fused to a histidine (His) tag were expressed in E. coli (SEQ ID Nos: 2-3, 5-6 and 81) and purified on nickel agarose beads as described in Ashkenazi et al. 2016. The proteins were incubated for 10 minutes with increasing concentrations of the indicated compound in a black 384 wells microplate in a total volume of 20 μl. Binding was assessed by measuring the changes in the intrinsic fluorescence (280 nm) using Cytation™ 5 (BioTek).
Direct interaction with either the Spt5 or the Rpb1 CC domain of SPI-21 and SPI-18 was further validated. His-Rpb1 and His-Spt5 (fused to Spt4 to increase its stability) and His-eIF4E, used as a negative control, were each expressed in E. coli and purified by nickel agarose beads. Using the purified proteins, fluorescence intensity measurements were performed in the presence of increasing concentrations of SPI-21 and SPI-18. This method analyzes binding by monitoring the changes in the intrinsic fluorescence of the proteins as a consequence of conformational changes. Spt5, Rpb1, and eIF4E display significant intrinsic fluorescence, as expected from the presence of aromatic residues in all of them. […] These findings are consistent with the direct interaction of the identified SPI compounds with the Spt5 and Rpb1 proteins.

[2] = tested on: TNF-α-induced genes / expressed genes; assay: RNA-seq of 4sU-labeled newly synthesized RNA, with or without TNFα; type: cell-based, human; settings: 4sU labeling
Procedure: Cells treated with DMSO or SPI-21 with or without TNFα were metabolically labeled with […] and then RNA was extracted, biotinylated and the newly synthesized transcripts were isolated with streptavidin magnetic beads and subjected to RNA-Seq. Reads were mapped and differentially expressed genes were determined.
as §1, §2
To validate that the effects of SPIs are at the transcriptional level, cellular RNA was metabolically labeled with 4-thiouridine (4sU) for 2 hours in the presence of DMSO or SPI-21 in the presence or absence of TNFα. Newly synthesized labeled RNA was then purified and subjected to RNA-seq. […] Thus, the observed reduction in TNFα activation by SPI-21 is highly specific and is a consequence of diminished transcription.

T1 sequence (P06730 whole entry): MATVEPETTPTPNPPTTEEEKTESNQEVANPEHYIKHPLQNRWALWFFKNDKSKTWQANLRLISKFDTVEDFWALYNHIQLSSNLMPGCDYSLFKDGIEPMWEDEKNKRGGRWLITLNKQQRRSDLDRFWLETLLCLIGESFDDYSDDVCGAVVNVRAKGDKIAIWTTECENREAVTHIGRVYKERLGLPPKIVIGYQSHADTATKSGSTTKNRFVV

COc1ccc(C=CC(=O)c2cc(O)ccc2O)cc1 [SPI-21]
HIST1H1B level, RNA-seq ([1]; 4sU labelling): 1.3 | HIST1H1E level, RNA-seq ([1]; 4sU labelling): 1.3 | HIST1H2AG level, RNA-seq ([1]; 4sU labelling): 1.3 | HIST1H2AH level, RNA-seq ([1]; 4sU labelling): 1.4 | HIST1H2AI level, RNA-seq ([1]; 4sU labelling): 1.4 | HIST1H2AK level, RNA-seq ([1]; 4sU labelling): 1.1 | HIST1H2AL level, RNA-seq ([1]; 4sU labelling): 1.1 | HIST1H2BF level, RNA-seq ([1]; 4sU labelling): 1.3 | HIST1H3A level, RNA-seq ([1]; 4sU labelling): 1.2 | HIST1H3B level, RNA-seq ([1]; 4sU labelling): 1.4 | HIST1H3D level, RNA-seq ([1]; 4sU labelling): 1.4 | HIST1H3F level, RNA-seq ([1]; 4sU labelling): 1.3 | HIST1H3G level, RNA-seq ([1]; 4sU labelling): 1.4 | HIST1H4A level, RNA-seq ([1]; 4sU labelling): 1.7 | HIST1H4B level, RNA-seq ([1]; 4sU labelling): 1.4 | HIST1H4C level, RNA-seq ([1]; 4sU labelling): 1.5 | HIST1H4D level, RNA-seq ([1]; 4sU labelling): 1.6 | HIST1H4H level, RNA-seq ([1]; 4sU labelling): 1.3 | HIST2H2AC level, RNA-seq ([1]; 4sU labelling): 1.3 | HIST2H3D level, RNA-seq ([1]; 4sU labelling): 1.4 | histone gene transcription, in words ([1]; 4sU metabolic labeling): moderate increase | effect on intrinsic fluorescence of eIF4E (His-eIF4E): no significant effect | fraction of TNF-α-induced genes downregulated ([2]; TNFα): 61% | number of TNF-α-induced genes (of 467) downregulated ([2]; TNFα): 285 genes | fraction of expressed genes downregulated ([2]; basal conditions): 2.2% | number of expressed genes (of 13,890) downregulated ([2]; basal conditions): 301 genes
